The subject of data set [1] is full-thickness circular ear wounds. The experiment in a line: Wound repair in rabbits (6 mm punch wounds in ears). The class given is in vivo, New Zealand White rabbits. The following applies: rabbit ear wounds; 5, 10, 50 μM, 10 μl every second day; FIG. 3. Here is the method:
As an experimental animal model, female New Zealand White rabbits (2 kg in body weight) were employed to evaluate the efficacy of phytosphingosine and derivatives thereof on wound healing.
The rabbits were anesthetized with an intramuscular injection of ketamine (3 to 4 mg/kg). After removing hairs and a horny layer (stratum corneum) inside the both ears, 4 full-thickness circular wounds were created in each ear using a 6 mm-punch biopsy. As a control, PBS solution containing 0.1% BSA was applied to the wound regions at an amount of 10 μl every second day. For test groups, a composition comprising lysophosphatidic acid only, a composition comprising sphingolipid long-chain base only, and a composition comprising a combination thereof were applied each at varying concentrations (5 μM, 10 μM and 50 μM) at a volume of 10 μl every second day. The wounds applied with those agents were sealed with Cathreep (Nichiban Co., Japan). On 4th and 8th day after application, the rabbits were sacrificed, and the wound areas were histologically examined.

Data set [2] deals with human skin fibroblasts. The experiment in a line: Tracing metabolic pathway in human skin fibroblasts (TLC of lipid extracts). The class given is in vitro ADME. The following applies: 20 μM, 48 hrs. The procedure:
Human skin fibroblasts were employed as the cell line for the study. Phytosphingosine, tetraacetyl phytosphingosine, and acetyl phytosphingosine were respectively dissolved in a mixture of ethanol/dodecane, preparing stock solutions at certain concentrations. When the fibroblasts became confluent in 7 cm diameter culture dishes, 20 μM of the respective test samples was added and cultured in a CO2 incubator for 48 hrs. Cells were harvested and treated according to a common extraction method for sphingolipids. Hydrolysis was performed under basic conditions at 37° C. overnight. The samples were passed through a reverse phase column to remove salts. The desalted lipid extracts were subjected to a TLC analysis on Silica gel 60 G plates (Merck, Germany), using chloroform/methanol/concentrated acetic acid (190/9/1) to elute neutral lipids.

The subject of data set [3] is human skin fibroblasts. Type of data set: cell-based.
The test system of another data set is protein kinase C (PKC). The experiment in a line: Inhibition of protein kinase C in mouse epidermal cell line Pam212. The class given is cell-based. The following applies: Pam212 cells treated at 100 μM and 400 μM; FIG. 6. Here is the method:
An anti-inflammation effect of the cream composition according to the invention was evaluated by assessing inhibition of protein kinase C (PKC) in mouse epidermal cell line (Pam212). The cultured epidermal cells at 2×10^7 cells/ml were treated with phytosphingosine or derivatives thereof at final concentrations of 100 μM, and 400 μM. After washing with PBS, the cells were disrupted using a homogenizer and centrifuged. The supernatant was passed through a DE52 column to obtain a fraction containing PKC. To measure the amount of activated PKC in the fractions, 5 μl each of a PKC coactivation 5× buffer, PKC activation 5× buffer, PKC biotinylated peptide substrate and ^32P-ATP mixture were added to a tube. For a negative control, 5 μl each of a PKC coactivation 5× buffer, Control 5× buffer, PKC biotinylated peptide substrate and ^32P-ATP mixture were measured. To the tubes were added 5 μl of respective PKC fractions. The reaction was performed at 30° C. for 5 min. After terminating the reaction by adding a 12.5 μl stop solution, a 10 μl aliquot was dropped on a SAM^2™ membrane. The membrane was washed 1× with 2M NaCl for 30 sec, 3× with 2M NaCl for 2 min, 4× with a solution of 1% H3PO4 and 2M NaCl for 2 min, and 2× with distilled water for 30 sec, followed by drying. Radioactivity was measured to examine a PKC inhibition effect.

The subject of another data set is Langerhans cells. The data set is described as follows: Effect on number of Langerhans cells in skin explant. Particulars: 1% test sample. The class given is cell-based. The procedure:
Langerhans cells play a role in mediating immune response of the skin. Treatment of skin disorders related to a hypersensitive immune response can be accomplished by regulating either the number or the antigen-presenting ability of Langerhans cells. To examine the efficacy of sphingolipid long-chain base on the regulation of the number of Langerhans cells, a test was performed as follows. Each skin explant was applied with a 1% test sample containing sphingolipid.

In the case of lysophosphatidic acid, the “Rates of wound healing (%) compared to untreated control group” value in data set [1] was “highly accelerate the rates of wound healing”.

In the case of tetraacetyl phytosphingosine, in the data set on human skin fibroblasts [2], the “Metabolic conversion within the cells” value is listed as “converted to C2-phytoceramide”. Further, the “Cytotoxicity relative to other sphingolipid long-chain bases” value in the data set with human skin fibroblasts [3] is on record as “lower cytotoxicity than other sphingolipid long-chain bases”. Further, in the data set with protein kinase C (PKC), the PKC inhibition effect result is on record as “excellent PKC inhibition effects”.

For `CCCCCCCCCCCCCC[C@@H](O)[C@@H](O)[C@H](CO)NC(C)=O` [N-acetyl phytosphingosine], the PKC inhibition effect entry in the data set with protein kinase C (PKC) is “excellent PKC inhibition effects”.

Regarding `CCCCCCCCCCCCCC[C@@H](O)[C@@H](O)[C@@H](N)CO` [phytosphingosine], the “Rates of wound healing (%) compared to untreated control group” value in data set [1] was “highly accelerate the rates of wound healing”. Moreover, the “Efficacy on reducing the number of Langerhans cells (comparison)” value with Langerhans cells was “greater than that of tetraacetyl phytosphingosine”. Besides, in the data set on protein kinase C (PKC), the PKC inhibition effect entry is on record as “excellent PKC inhibition effects”.

(Values after patent publication US6964952B2, “Therapeutic composition for broad spectrum dermal disease” (Doosan Corporation, priority 2001, dated 2005).)
